Source: US10787436B2, “Inhibitors of cyclin-dependent kinase 7 (CDK7)” (Dana-Farber Cancer Institute, Inc., priority 2012, dated 2020)
pIC50: −log10 of the molar value. Where two headings read alike, the source gives them in different places.

Columns and labels:
[1] = test system: 143B; assay: Proliferation assay, CellTiter-Glo, 72 hour; type: cell-based; details: osteosarcoma cell line, read-out: Inhibition of proliferation, 143B
[2] = test system: T47D; assay: Proliferation assay, CellTiter-Glo, 72 hour; type: cell-based; details: breast cancer cell line, read-out: Inhibition of proliferation, T47D
[3] = test system: panel of >300 diverse cancer cell lines; assay: Cancer cell line panel profiling, alamarBlue, 72 hours; type: cell-based, human
Description: At indicated time points, cellular lysates were harvested at the indicated times points and immunoblotted for the indicated proteins. […] Anti-proliferative effects were determined using cell titer glo analysis. […] Anti-proliferative effects were determined using alamarBlue® analysis. […] Anti-proliferative effects were determined using cell titer glo analysis. […] Dose: i.v. 1 mg/kg and p.o. 10 mg/kg.
Proliferation assays were conducted over a 48-72 hour time period (as noted). […] Cancer cell line profiling was performed over a 72 time period using Alamar Blue reagent.
CDK7 inhibitors display strong antiproflierative effects in leukemia and lymphoma cancer cells. However, a better definition of the breadth of their therapeutic potential in other cell types has not been reported. […] The rationale for examining such a large panel of human cancer cell lines is based on the fact that there is substantial genetic heterogeneity among human tumor cells, even with the same histological origins. In general, the data reveal a bimodal distribution with cell lines displaying exquisite sensitivity or apparent complete insensitivity to the compound.

[4] = test system: Hs863T; assay: Proliferation assay, CellTiter-Glo, 72 hour; type: cell-based; details: Ewing's sarcoma cell line, read-out: Inhibition of proliferation, Hs863T
[5] = test system: MCF7; assay: Proliferation assay, CellTiter-Glo, 72 hour; type: cell-based; details: breast cancer cell line, read-out: Inhibition of proliferation, MCF7
[6] = test system: RS4-11; assay: Proliferation assay, CellTiter-Glo, 72 hour; type: cell-based; details: blood cancer cell line, read-out: Inhibition of proliferation, RS4-11
[7] = test system: MCF10A; assay: Proliferation assay, CellTiter-Glo, 72 hour; type: cell-based; details: non-tumorigenic breast epithelial cell line, read-out: Inhibition of proliferation, MCF10A
[8] = test system: HL60; assay: Proliferation assay, CellTiter-Glo, 72 hour; type: cell-based; details: blood cancer cell line, read-out: Inhibition of proliferation, HL60
[9] = target: CDK5/p25 (Homo sapiens (Human), UniProt Q00535); assay: Life Technologies Z'-Lyte kinase assay, CDK5/p25; type: biochemical; details: read-out: Calculated IC50, CDK5/p25
CDK5/p25, sequence (Q00535 whole entry): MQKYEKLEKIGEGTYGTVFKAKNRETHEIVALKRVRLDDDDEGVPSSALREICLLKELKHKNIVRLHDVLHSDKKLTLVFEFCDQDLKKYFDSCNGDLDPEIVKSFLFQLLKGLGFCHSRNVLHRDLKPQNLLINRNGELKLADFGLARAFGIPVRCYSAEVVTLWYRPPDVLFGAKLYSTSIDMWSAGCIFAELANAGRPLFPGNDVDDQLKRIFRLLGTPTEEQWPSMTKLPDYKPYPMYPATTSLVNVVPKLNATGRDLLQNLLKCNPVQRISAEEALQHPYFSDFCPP
CDK5/p25, sequence (Q15078 99-307 partner): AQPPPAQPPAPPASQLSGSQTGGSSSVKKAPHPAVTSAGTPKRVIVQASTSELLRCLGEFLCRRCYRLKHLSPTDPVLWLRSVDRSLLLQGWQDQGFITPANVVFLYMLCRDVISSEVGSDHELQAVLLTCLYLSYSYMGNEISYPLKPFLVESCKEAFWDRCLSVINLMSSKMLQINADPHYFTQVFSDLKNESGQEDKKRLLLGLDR

[10] = target: JNK2 (MAPK9) (Homo sapiens (Human), UniProt P45984); assay: Life Technologies Z'-Lyte kinase assay, JNK2; type: biochemical
JNK2 (MAPK9), sequence (P45984 whole entry): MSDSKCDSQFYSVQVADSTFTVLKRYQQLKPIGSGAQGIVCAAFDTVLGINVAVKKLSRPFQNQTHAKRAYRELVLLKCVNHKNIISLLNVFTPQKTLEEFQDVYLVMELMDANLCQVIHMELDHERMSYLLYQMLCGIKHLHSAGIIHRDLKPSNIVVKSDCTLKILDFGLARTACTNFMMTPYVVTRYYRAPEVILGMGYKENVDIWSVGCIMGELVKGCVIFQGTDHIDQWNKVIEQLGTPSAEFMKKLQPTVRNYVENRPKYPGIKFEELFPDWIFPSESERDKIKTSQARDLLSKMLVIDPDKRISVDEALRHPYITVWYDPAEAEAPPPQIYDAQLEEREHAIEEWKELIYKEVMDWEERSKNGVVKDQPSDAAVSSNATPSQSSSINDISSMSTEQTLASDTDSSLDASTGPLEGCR

[11] = test system: SKBR3; assay: Proliferation assay, CellTiter-Glo, 72 hour; type: cell-based; details: breast cancer cell line, read-out: Inhibition of proliferation, SKBR3
[12] = test system: CDK7 occupancy; assay: CDK7 ChIP-seq in Jurkat cells; type: cell-based, human
Description: After the indicated treatment time, cells were crosslinked for 10 minutes at room temperature by the addition of one-tenth of the volume of 11% formaldehyde solution (11% formaldehyde, 50 mM Hepes (pH 7.3), 100 mM NaCl, 1 mM EDTA (pH 8.0), 0.5 mM EGTA (pH 8.0)) to the growth media followed by two washes with PBS. Following the final PBS wash, supernatant was aspirated, and the cell pellet was flash frozen in liquid nitrogen. Frozen crosslinked cells were stored at −80° C.
50 μl of Dynal magnetic beads (Sigma) were blocked with 0.5% BSA (w/v) in PBS. Magnetic beads were bound with 5 μg of the indicated antibody. Antibodies used are as follows: Total RNAP II (Rpb1 N-terminus): Santa Cruz sc-899; CDK7: Bethyl A300-405A. Crosslinked cells were lysed with lysis buffer 1 (50 mM Hepes (pH 7.3), 140 mM NaCl, 1 mM EDTA, 10% glycerol, 0.5% NP-40, and 0.25% Triton X-100) and washed with lysis buffer 2 (10 mM Tris-HCl (pH 8.0), 200 mM NaCl, 1 mM EDTA (pH 8.0) and 0.5 mM EGTA (pH 8.0)). […]
Illumina sequencing libraries were generated, and data were processed according to Lin et al., Cell (2012) 151:56-67. […] These criteria preserved only reads that mapped uniquely to the genome with 1 or fewer mismatches. […]

[13] = test system: SK-ES; assay: Proliferation assay, CellTiter-Glo, 72 hour; type: cell-based; details: Ewing's sarcoma cell line, read-out: Inhibition of proliferation, SK-ES
[14] = test system: A673; assay: Proliferation assay, CellTiter-Glo, 72 hour; type: cell-based; details: Ewing's sarcoma cell line, read-out: Inhibition of proliferation, A673
[15] = target: IRAK1 (Homo sapiens (Human), UniProt P51617); assay: Life Technologies Adapta kinase assay, IRAK1; type: biochemical; details: read-out: Calculated IC50, IRAK1
IRAK1, sequence (P51617 whole entry): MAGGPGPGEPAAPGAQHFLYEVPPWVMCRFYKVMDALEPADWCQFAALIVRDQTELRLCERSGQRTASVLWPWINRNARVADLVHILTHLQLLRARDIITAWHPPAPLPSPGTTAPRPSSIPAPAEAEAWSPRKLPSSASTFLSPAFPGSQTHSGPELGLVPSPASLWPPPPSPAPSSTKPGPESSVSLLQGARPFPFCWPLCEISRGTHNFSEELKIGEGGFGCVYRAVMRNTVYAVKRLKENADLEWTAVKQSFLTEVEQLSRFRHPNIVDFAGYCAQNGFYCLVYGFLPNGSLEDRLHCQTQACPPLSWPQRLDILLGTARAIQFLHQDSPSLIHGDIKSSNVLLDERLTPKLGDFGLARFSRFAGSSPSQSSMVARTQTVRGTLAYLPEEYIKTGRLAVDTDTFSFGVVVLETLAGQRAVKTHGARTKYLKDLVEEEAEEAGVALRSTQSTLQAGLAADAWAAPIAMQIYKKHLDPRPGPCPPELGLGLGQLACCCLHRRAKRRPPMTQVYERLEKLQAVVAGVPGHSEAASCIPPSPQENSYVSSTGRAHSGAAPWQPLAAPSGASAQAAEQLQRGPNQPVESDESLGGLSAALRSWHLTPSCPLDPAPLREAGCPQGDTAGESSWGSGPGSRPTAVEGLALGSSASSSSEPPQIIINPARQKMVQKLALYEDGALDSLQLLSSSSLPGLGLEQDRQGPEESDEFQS

Structure (SMILES): CN(C)C/C=C/C(=O)Nc1ccc(C(=O)Nc2cccc(Nc3ncc(Cl)c(-c4c[nH]c5ccccc45)n3)c2)cc1 [Formula I-23]
- pIC50 [1]: < 5.30
- pIC50 [2]: < 5.30
- pIC50 ([3]; panel of >300 cancer cell lines, read-out: IC50 values in 24% of cell lines): < 5.60
- pIC50 ([3]; read-out: IC50s in 94% (132/140) of leukemia cell lines): > 6.70
- pIC50 ([3]; read-out: IC50s in all (48/48) lymphoma cell lines): > 6.82
- pIC50 ([3]; read-out: IC50 values in 70% of cell lines, panel of >300 cancer cell lines): > 6.70
- pIC50 [4]: 5.30 to 6.30
- pIC50 [5]: > 6.30
- pIC50 [6]: > 6.30
- pIC50 [7]: > 6.30
- pIC50 [8]: > 6.30
- pIC50 [9]: 6.00 to 7.00
- pIC50 ([10]; read-out: Calculated IC50, JNK2 (MAPK9)): 6.00 to 7.00
- Percent inhibition, JNK2 ^b ([10]; superscript b (footnote not given; tested at 100 nM and 1 μM)): C (less than 50% inhibition)
- pIC50 [11]: 5.30 to 6.30
- CDK7 occupancy (association with chromatin) [12]: did not disrupt CDK7 occupancy
- pIC50 [13]: > 6.30
- pIC50 [14]: > 6.30
- pIC50 [15]: > 7.00
